# Columns and labels:
# [1] = test system: four non-smoking volunteers (2 men and 2 women); test: Taste intensity score, 11-point scale (0 not intense to 10 very intense); format: in vivo, human; settings: concentration 4; averaged over 4 subjects, 6 repetitions each
# Protocol: (§1) In this test, four non-smoking volunteers (2 men and 2 women) were chosen from 12 people for their performance in taste recognition. Their mean age was 32 years, ranging from 24 to 40 years. […] These four people were trained for several months to recognize and detect the four basic tastes, and also regarding the procedures of sensory and physiological analysis.
# (§2) The four basic tastes (sweet, salty, sour and bitter) were used. The solutions were prepared with citric acid for the sour taste, caffeine for the bitter taste, sodium chloride for the salty taste and sucrose for the sweet taste (all purchased from Sigma Aldrich, France) in Evian water. Evian water was also used as control and blank. Each taste was prepared with the four concentrations mentioned in table 1.
# (§3) The amount of solution to be tested was standardized at 10 ml. In order to impregnate the whole of the oral cavity, the subjects kept the solution in their mouth for 5 s before swallowing it.
# (§4) The sessions were individual and the subjects were asked not to eat or drink anything for at least 1 h before the test. They arrived 15 min before the start of the session in order to acclimatize to the environmental conditions, in particular the temperature of the room (kept constant at 23° C.) and to be resting seated on a comfortable chair. The 16 solutions for testing and two additional samples of water containing solely Evian water, added to the references, were presented monadically following a test order determined from a “balanced incomplete block design”. During a session, 9 samples out of 18 were presented to minimize sensory fatigue. In addition, a sample of Evian was always tested as a “blank” sample in order to avoid the first-order effect (Lawless, H. T. & Heymann, H., 2010, Sensory evaluation of food: Principles and practices. Springer, New York) and was excluded from the analysis. A light signal was sent to give the instruction to test the sample. When the disturbance to the nervous system returned to its baseline level (after approximately 1 min), a second light signal indicated to the subjects that they should complete a questionnaire regarding the stimulus tested previously. The first part of the questionnaire was linked to the identification of the taste (i.e. determining the quality of the taste); the subjects had to choose between five labels: sweet, salty, sour, bitter or neutral. They then had to assign a taste intensity score on an 11-point scale (from 0 “not intense” (i.e. taste of Evian only) to 10 “very intense”) and finally to give a hedonic score on an 11-point scale (from 0 “very unpleasant” to 10 “very pleasant”, 5 being “neutral”).
# (§5) This procedure was repeated for each of the 9 stimuli. A session lasted approximately 45 min including a debriefing at the end of the test to ensure understanding of the sense of the signal variations. The experiment was repeated 12 times per subject, meaning that the data are composed of 6 data sets per subject and per product and 12 data sets for the Evian product per subject. Thus, the database consists of 432 samples.
# (§6) The effect of the taste on the hedonic and intensity scores was analyzed by an analysis of variance (ANOVA) including the product effect, the subject effect and the product-subject interaction. The subject effect was fixed because there were only 4 subjects and the results could only be applied to a particular schema. The differences were considered to be significant at a level of 0.05.
# [2] = test system: four non-smoking volunteers (2 men and 2 women); test: Hedonic score, 11-point scale (0 very unpleasant to 10 very pleasant, 5 neutral); format: in vivo, human; settings: concentration 4 (highest)
# Protocol: as §1, §2, §3, §4, §5, §6
# [3] = test system: four non-smoking volunteers (2 men and 2 women); test: Taste identification questionnaire, trained panel (count of 6 repetitions per subject in which the stimulus was given each taste label; level of recognition %); format: in vivo, human; settings: for Level of Recognition %: Bitter / Level of Recognition %: Neutral / Level of Recognition %: Salty / Level of Recognition %: Sour / Level of Recognition %: Sweet: four subjects
# Protocol: as §1, §2, §3, §4, §5
# [4] = cited from earlier work
compound,measurement,setting,value
"OC[C@H]1O[C@@](CO)(O[C@H]2O[C@H](CO)[C@@H](O)[C@H](O)[C@H]2O)[C@@H](O)[C@@H]1O [Sucrose, sucrose]",intensity score,[1],8.3±0.9
same,hedonic score,[2],7.0±2.6
same,Individual recognition score: Bitter,"[3]; Subject 1, dilution 1",0
same,Individual recognition score: Neutral,"[3]; Subject 1, dilution 1",0
same,Individual recognition score: Salty,"[3]; Subject 1, dilution 1",0
same,Individual recognition score: Sour,"[3]; Subject 1, dilution 1",0
same,Individual recognition score: Sweet,"[3]; Subject 1, dilution 1",6
same,Individual recognition score: Bitter,"[3]; Subject 1, dilution 2",0
same,Individual recognition score: Neutral,"[3]; Subject 1, dilution 2",0
same,Individual recognition score: Salty,"[3]; Subject 1, dilution 2",0
same,Individual recognition score: Sour,"[3]; Subject 1, dilution 2",0
same,Individual recognition score: Sweet,"[3]; Subject 1, dilution 2",6
same,Individual recognition score: Bitter,"[3]; Subject 1, dilution 3",0
same,Individual recognition score: Neutral,"[3]; Subject 1, dilution 3",0
same,Individual recognition score: Salty,"[3]; Subject 1, dilution 3",0
same,Individual recognition score: Sour,"[3]; Subject 1, dilution 3",0
same,Individual recognition score: Sweet,"[3]; Subject 1, dilution 3",6
same,Individual recognition score: Bitter,"[3]; Subject 1, dilution 4",0
same,Individual recognition score: Neutral,"[3]; Subject 1, dilution 4",0
same,Individual recognition score: Salty,"[3]; Subject 1, dilution 4",0
same,Individual recognition score: Sour,"[3]; Subject 1, dilution 4",0
same,Individual recognition score: Sweet,"[3]; Subject 1, dilution 4",6
same,Individual recognition score: Bitter,"[3]; Subject 2, dilution 1",0
same,Individual recognition score: Neutral,"[3]; Subject 2, dilution 1",0
same,Individual recognition score: Salty,"[3]; Subject 2, dilution 1",0
same,Individual recognition score: Sour,"[3]; Subject 2, dilution 1",0
same,Individual recognition score: Sweet,"[3]; Subject 2, dilution 1",6
same,Individual recognition score: Bitter,"[3]; Subject 2, dilution 2",0
same,Individual recognition score: Neutral,"[3]; Subject 2, dilution 2",0
same,Individual recognition score: Salty,"[3]; Subject 2, dilution 2",0
same,Individual recognition score: Sour,"[3]; Subject 2, dilution 2",0
same,Individual recognition score: Sweet,"[3]; Subject 2, dilution 2",6
same,Individual recognition score: Bitter,"[3]; Subject 2, dilution 3",0
same,Individual recognition score: Neutral,"[3]; Subject 2, dilution 3",0
same,Individual recognition score: Salty,"[3]; Subject 2, dilution 3",0
same,Individual recognition score: Sour,"[3]; Subject 2, dilution 3",0
same,Individual recognition score: Sweet,"[3]; Subject 2, dilution 3",6
same,Individual recognition score: Bitter,"[3]; Subject 2, dilution 4",0
same,Individual recognition score: Neutral,"[3]; Subject 2, dilution 4",0
same,Individual recognition score: Salty,"[3]; Subject 2, dilution 4",0
same,Individual recognition score: Sour,"[3]; Subject 2, dilution 4",0
same,Individual recognition score: Sweet,"[3]; Subject 2, dilution 4",6
same,Individual recognition score: Bitter,"[3]; Subject 3, dilution 1",0
same,Individual recognition score: Neutral,"[3]; Subject 3, dilution 1",3
same,Individual recognition score: Salty,"[3]; Subject 3, dilution 1",0
same,Individual recognition score: Sour,"[3]; Subject 3, dilution 1",0
same,Individual recognition score: Sweet,"[3]; Subject 3, dilution 1",3
same,Individual recognition score: Bitter,"[3]; Subject 3, dilution 2",0
same,Individual recognition score: Neutral,"[3]; Subject 3, dilution 2",0
same,Individual recognition score: Salty,"[3]; Subject 3, dilution 2",0
same,Individual recognition score: Sour,"[3]; Subject 3, dilution 2",0
same,Individual recognition score: Sweet,"[3]; Subject 3, dilution 2",6
same,Individual recognition score: Bitter,"[3]; Subject 3, dilution 3",0
same,Individual recognition score: Neutral,"[3]; Subject 3, dilution 3",0
same,Individual recognition score: Salty,"[3]; Subject 3, dilution 3",0
same,Individual recognition score: Sour,"[3]; Subject 3, dilution 3",0
same,Individual recognition score: Sweet,"[3]; Subject 3, dilution 3",6
same,Individual recognition score: Bitter,"[3]; Subject 3, dilution 4",0
same,Individual recognition score: Neutral,"[3]; Subject 3, dilution 4",0
same,Individual recognition score: Salty,"[3]; Subject 3, dilution 4",0
same,Individual recognition score: Sour,"[3]; Subject 3, dilution 4",0
same,Individual recognition score: Sweet,"[3]; Subject 3, dilution 4",6
same,Individual recognition score: Bitter,"[3]; Subject 4, dilution 1",0
same,Individual recognition score: Neutral,"[3]; Subject 4, dilution 1",0
same,Individual recognition score: Salty,"[3]; Subject 4, dilution 1",0
same,Individual recognition score: Sour,"[3]; Subject 4, dilution 1",0
same,Individual recognition score: Sweet,"[3]; Subject 4, dilution 1",6
same,Individual recognition score: Bitter,"[3]; Subject 4, dilution 2",0
same,Individual recognition score: Neutral,"[3]; Subject 4, dilution 2",0
same,Individual recognition score: Salty,"[3]; Subject 4, dilution 2",0
same,Individual recognition score: Sour,"[3]; Subject 4, dilution 2",0
same,Individual recognition score: Sweet,"[3]; Subject 4, dilution 2",6
same,Individual recognition score: Bitter,"[3]; Subject 4, dilution 3",0
same,Individual recognition score: Neutral,"[3]; Subject 4, dilution 3",0
same,Individual recognition score: Salty,"[3]; Subject 4, dilution 3",0
same,Individual recognition score: Sour,"[3]; Subject 4, dilution 3",0
same,Individual recognition score: Sweet,"[3]; Subject 4, dilution 3",6
same,Individual recognition score: Bitter,"[3]; Subject 4, dilution 4",0
same,Individual recognition score: Neutral,"[3]; Subject 4, dilution 4",0
same,Individual recognition score: Salty,"[3]; Subject 4, dilution 4",0
same,Individual recognition score: Sour,"[3]; Subject 4, dilution 4",0
same,Individual recognition score: Sweet,"[3]; Subject 4, dilution 4",6
same,Level of Recognition %: Bitter,[3]; dilution 1,0%
same,Level of Recognition %: Neutral,[3]; dilution 1,12%
same,Level of Recognition %: Salty,[3]; dilution 1,0%
same,Level of Recognition %: Sour,[3]; dilution 1,0%
same,Level of Recognition %: Sweet,[3]; dilution 1,88%
same,Level of Recognition %: Bitter,[3]; dilution 2,0%
same,Level of Recognition %: Neutral,[3]; dilution 2,0%
same,Level of Recognition %: Salty,[3]; dilution 2,0%
same,Level of Recognition %: Sour,[3]; dilution 2,0%
same,Level of Recognition %: Sweet,[3]; dilution 2,100%
same,Level of Recognition %: Bitter,[3]; dilution 3,0%
same,Level of Recognition %: Neutral,[3]; dilution 3,0%
same,Level of Recognition %: Salty,[3]; dilution 3,0%
same,Level of Recognition %: Sour,[3]; dilution 3,0%
same,Level of Recognition %: Sweet,[3]; dilution 3,100%
same,Level of Recognition %: Bitter,[3]; dilution 4,0%
same,Level of Recognition %: Neutral,[3]; dilution 4,0%
same,Level of Recognition %: Salty,[3]; dilution 4,0%
same,Level of Recognition %: Sour,[3]; dilution 4,0%
same,Level of Recognition %: Sweet,[3]; dilution 4,100%
same,detection threshold concentration of the basic taste,[4]; literature (Purves 2005; Robinson 2005),approximately 20 mmol·l^−1
same,detection threshold,[4]; representative compound of a primary taste,6.846 g/L

# Reference: patent publication US20180188224A1, “METHOD FOR CONSTRUCTING A SENSORY SPACE” (CENTRE SCIENTIFIQUE ET TECHNIQUE DU BATIMENT (CSTB), priority 2015, published 2018)
